Test results taken from patent US20240299593A1, “SYSTEMS AND METHODS FOR GENERATION OF HYPERPOLARIZED MATERIALS” (NVISION IMAGING TECHNOLOGIES GMBH, priority 2021, published 2024).
Structures can show the parent of a compound that is named as a salt. Where two headings read alike, the source gives them in different places.

What was measured:
[1] = ICH toxicity limits, cited from earlier work; for Limits: residual solvent concentration in carrier; for Permissible Daily Exposure: residual solvent
[2] = SABRE catalyst in acetone extraction study (proton NMR of both phases); type: physicochemical; details: 1 ml Acetone-d6, 6 ml MTBE, 1 ml D2O
[3] = type: physicochemical; details: for extraction efficiency (output/input acetone concentration in water): organic wash:aqueous 4:1; for extraction efficiency, comparison in words: with and without pyruvate in solution
[4] = Liquid-liquid purification system, Example 1 (samples of phases analyzed)
Protocol: A system was prepared comprising a first vessel, a second vessel fluidly connected to the first vessel, and a third vessel fluidly connected to the second vessel. The vessels and the fluid path were covered by a defined magnetic field provided by solenoids to prevent undesired hyperpolarisation loss during the processing of a solution through the system.
The mixture was bubbled with nitrogen gas, and 1.0 mL of base (400 mM NaOD in D2O) was injected into Vessel 1 to cleave the pyruvate ester into sodium pyruvate and the corresponding unbonded sidearm.
The solution in Vessel 1 was then subjected to a first washing step. 20 mL of organic washing solvent (e.g., diethyl ether or tert-butyl methyl ether) were injected into the solution, and then agitated using nitrogen gas bubbling. The mixture was then allowed to settle for about 10 seconds until a clear phase separation between the aqueous phase (lower phase) and the organic phase (upper phase) had formed.
The aqueous phase from Vessel 1 was pumped into Vessel 2, which had been prefilled with 20 mL of the same organic washing solvent (e.g., diethyl ether or tert-butyl methyl ether). The mixture was again agitated using nitrogen gas bubbling, and allowed to settle for about 10 seconds until a clear phase separation between the aqueous phase (lower phase) and the organic phase (upper phase) had formed. […]

Compound	Limits [1]	Permissible Daily Exposure [1]	also measured
CC(Cl)(Cl)Cl [1,1,1-Trichloroethane]	1500 ppm	–	–
ClC=C(Cl)Cl [1,1,2-Trichloroethene]	80 ppm	0.8 mg/day	–
C=C(Cl)Cl [1,1-Dichloroethene]	8 ppm	–	–
ClCCCl [1,2-Dichloroethane]	5 ppm	–	–
COCCOC [1,2-Dimethoxyethane]	100 ppm	1.0 mg/day	–
CCCCCO [1-Pentanol]	5000 ppm	50 mg/day	–
CCOCCO [2-Ethoxyethanol]	160 ppm	1.6 mg/day	–
CC(=O)O [Acetic acid]	5000 ppm	–	–
CC(C)=O [Acetone]	5000 ppm	50 mg/day	concentration in the aqueous phase after washing [2]: lower in the aqueous phase after washing
CC#N [Acetonitrile]	410 ppm	4.1 mg/day	–
COc1ccccc1 [Anisole]	5000 ppm	50 mg/day	–
CCCCOC(C)=O [Butyl acetate]	5000 ppm	50 mg/day	–
ClC(Cl)(Cl)Cl [Carbon tetrachloride]	4 ppm	–	–
C1CCCCC1 [Cyclohexane]	3880 ppm	38.8 mg/day	–
ClCCl [Dichloromethane]	600 ppm	6.0 mg/day	extraction efficiency (output/input acetone concentration in water) ([3]; 2000 mM acetone, With Pyruvate): 0.04; extraction efficiency (output/input acetone concentration in water) ([3]; 9000 mM acetone, No Pyruvate): 0.07; extraction efficiency (output/input acetone concentration in water) ([3]; 9000 mM acetone, With Pyruvate): 0.06; extraction efficiency, comparison in words [3]: best extraction efficiency
CCOCC [Diethyl ether]	–	–	extraction efficiency (output/input acetone concentration in water) ([3]; 9000 mM acetone, No Pyruvate): 0.29; extraction efficiency, comparison in words [3]: effective extraction efficiency
C[S+](C)[O-] [Dimethyl sulfoxide]	5000 ppm	50 mg/day	–

Compound	Limits [1]	Permissible Daily Exposure [1]	also measured
CCO [Ethanol]	5000 ppm	50 mg/day	–
CCOC=O [Ethyl formate]	5000 ppm	50 mg/day	–
NC=O [Formamide]	220 ppm	2.2 mg/day	–
CCCCCCC [Heptane]	5000 ppm	50 mg/day	–
CCCCCC [Hexane]	290 ppm	2.9 mg/day	–
COC(C)=O [Methyl acetate]	5000 ppm	50 mg/day	–
CCCCC(C)=O [Methylbutyl ketone]	50 ppm	0.5 mg/day	–
CC1CCCCC1 [Methylcyclohexane]	1180 ppm	11.8 mg/day	–
CC(=O)CC(C)C [Methylisobutyl ketone]	5000 ppm	50 mg/day	–
CN(C)C=O [N,N-Dimethylformamide]	880 ppm	–	–
CN1CCCC1=O [N-Methylpyrrolidone]	530 ppm	15.3 mg/day	–
CCCOC(C)=O [Propyl acetate]	5000 ppm	50 mg/day	–
c1ccc2c(c1)CCCC2 [Tetralin]	100 ppm	1.0 mg/day	–
CC(=O)C(=O)[O-].[Na+] [sodium pyruvate]	–	–	pH ([4]; Vessel 1, after hydrolysis and phosphate buffer, acetone/D2O): 6-9; pH ([4]; Vessel 3, final samples): 6-9
COC(C)(C)C [tert-Butylmethyl ether]	5000 ppm	50 mg/day	extraction efficiency (output/input acetone concentration in water) ([3]; 2000 mM acetone, No Pyruvate): 0.33; extraction efficiency (output/input acetone concentration in water) ([3]; 2000 mM acetone, With Pyruvate): 0.27; extraction efficiency (output/input acetone concentration in water) ([3]; 9000 mM acetone, No Pyruvate): 0.24; extraction efficiency (output/input acetone concentration in water) ([3]; 9000 mM acetone, With Pyruvate): 0.23; extraction efficiency, comparison in words [3]: effective extraction efficiency
IrIMes(COD) PF6	–	–	concentration in the aqueous phase after washing [2]: lower in the aqueous phase after washing; observability in NMR spectrum of the phases [2]: observable only in one of the phases and not in the other
Xylene	2170 ppm	21.7 mg/day	–
